Results on six compounds are retold here after patent EP0113632A1, “Process for the preparation of halogen methylates of levallorphane, and peripheral narcotic antagonist pharmaceutical compositions containing them” (SANOFI S.A., priority 1982, dated 1984).

The test system of assay [1] is effet constipant de la morphine. The experiment in a line: Charcoal meal intestinal transit test (Green, modified): antagonism of the constipating effect of morphine. In kind it is in vivo, souris. Particulars: for ED50: Mus musculus, sc, read-out: Antagonisme à l'effet constipant DI50c; for ED50 / Antagonisme à l'effet constipant DI50c: female mice fasted 20 h, s.c. 5 min before morphine 12 mg/kg s.c. and charcoal meal, sacrifice after 30 min, dose inhibiting the effect by 50 %, extrapolated from log dose-response regression, limits in parentheses. The procedure: L'antagonisme à l'effet constipant de la morphine des halomèthylates de lévallorphan de la présente invention a été évalué selon le test décrit par A.F. Green (Pr. J. Pharmacol. Chemother. 1959, 14, 26), opportunément modifié.
On utilise trois groupes de souris femelles de 20 g environ à jeun depuis 20 heures. A un groupe témoin, on administre par voie orale un repas constitué par 0,2 ml d'un mélange de gomme arabique 5 % (6 ml), farine (2 g) et charbon (1 g). Au deuxième groupe on administre par la voie sous-cutanée 12 mg/kg de morphine et, immédiatement après, le repas au charbon ci-dessus. Le troisième groupe est traité par l'antagoniste sous examen par voie sous-cutanée, puis, après 5 minutes, par 12 mg/kg de morphine par voie sous-cutanée et, tout de suite après, par le repas au charbon. Après trente minutes, les animaux sont sacrifiés pour l'évaluation de la portion intestinale parcourue par le charbon, exprimée en pour cent de la longueur totale de l'intestin grèle.
(§1) L'activité des substances à activité antagoniste périphérique des narcotiques est évaluée sur la base de l'inhibition pour cent de l'effet constipant et de l'effet analgésique de la morphine. La dose qui inhibe de 50 % lesdits effets (DI50c pour l'effet constipant et […] pour l'effet analgésique) a été extrapolée de la droite de régression log dose-réponse en appliquant l'analyse de la variance par régression linéaire.

For assay [2], the system named is effet analgésique de la morphine. The experiment in a line: Hot plate test: antagonism of the analgesic effect of morphine. The assay is classed as in vivo, souris. The note with it: for ED50: Mus musculus, sc, read-out: Antagonisme à l'effet analgésique DI50a; for ED50 / Antagonisme à l'effet analgésique DI50a: female mice, s.c. 5 min before morphine 24 mg/kg s.c., hot plate 30 min after morphine, dose inhibiting the effect by 50 %, extrapolated from log dose-response regression, limits in parentheses; for DI50a/DI50c: ratio of DI50 for the analgesic effect (hot plate) to DI50 for the constipating effect (charcoal meal). The procedure: L'antagonisme à l'effet analgésique de la morphine a été évalué selon le test classique pour l'analgésie de la plaque chauffante (Eddy et Leibach, J. Pharmacol. 1953, 107, 385, modifié par Janseen et Jagenau, J. Pharm. Pharmacol. 1957, 9, 381-400). Ce test est très sensible pour l'action des antogonistes des opiacés.
On utilise des souris femelles de 18 à 22 g. Les substances sont administrées en solution physiologique (20 ml/kg) par voie sous-cutanée 5 minutes avant l'administration de la morphine (24 mg/kg s.c.). Trente minutes après la morphine, on place les animaux sur la plaque chauffante et l'on évalue le temps de réaction des animaux qui présentent la réaction nocicéptive (léchage des pattes).
as §1

Bounds are passed on as bounds.

Regarding `C=CC[N+]1(C)CCC23c4c5ccc(O)c4OC2C(O)C=CC3C1C5` (single isomer, unassigned) [bromométhylate de nalorphine], the ED50 in assay [1] was 3.7 mg/kg; in assay [2], 8.6 mg/kg. The DI50a/DI50c in assay [2] is given as 2,32.
As to `C=CC[N+]1(C)CC[C@]23CCCC[C@H]2[C@H]1Cc1ccc(O)cc13` (single isomer, unassigned) [iodoallylate de lévorphanol], in assay [1] (conclusion in words, covers both the constipation and the analgesia test), the “activité antagoniste, périphérique ou centrale” value is listed as “inactif”. In addition, the “Antagonisme à l'effet constipant DI50c” value in assay [1] is given as 50 mg/kg. Also, the “Antagonisme à l'effet analgésique DI50a” value in assay [2] is listed as 50 mg/kg.
Turning to `C=CC[N+]1(C)CC[C@]23CCCC[C@H]2[C@H]1Cc1ccc(O)cc13` (single isomer, unassigned) [iodométhylate de lévallorphan], the “Antagonisme à l'effet constipant DI50c” value in assay [1] is 7,6 mg/kg (4,5 - 13,0). Further, the “activité par rapport à celle du bromoallylate de lévallorphan” value in assay [1] (test of antagonism of the constipating effect of morphine, fold higher activity) is on record as over 2 fois. In addition, in assay [2], the ED50 was 50 mg/kg and the DI50a/DI50c was 6,7.
For the compound `C=CC[N+]1(CC=C)CC[C@]23CCCC[C@H]2[C@H]1Cc1ccc(O)cc13` [bromoallylate de lévallorphan], the ED50 in assay [1] is 15.6 mg/kg. In assay [2], the ED50 was 15.2 mg/kg and the DI50a/DI50c was 0,97.
On the same counts, the results for `C=CCN1CC[C@]23c4c5ccc(O)c4O[C@H]2C(=O)CC[C@@]3(O)[C@H]1C5` [naloxone, N-allyl-noroxymorphone] are 0.8 mg/kg, 0.06 mg/kg and 0,08.
As for `C=CC[N+]1(C)CCC23c4c5ccc(O)c4OC2C(=O)CCC3(O)C1C5.COS(=O)(=O)[O-]` (stereo not drawn) [sulfométhylate de naloxone], in assay [1], the “Antagonisme à l'effet constipant DI50c” value was 5,8 mg/kg (2,9 - 11,5). The “Antagonisme à l'effet analgésique DI50a” value in assay [2] is reported as 1,6 mg/kg (0,7 - 3,6).
